Read-outs that look alike come from different tables or passages of the source.
Key:
Mino cells = assay: Antiproliferative effect, MTS cell viability assay, Mino cells; type: cell-based; conditions: Mino mantle cell lymphoma cells, read-out: IC50 (anti-proliferation) Mino cells
In short: (§1)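 Tested at six concentrations (0 to 10 μM in tenfold steps), 72 h; viability by MTS, A490.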

BTK = BTK (Homo sapiens, UniProt Q06187); assay: Degradation of BTK protein in Namalwa cells (Western blot; DC50, Dmax); conditions: for DC50 / Dmax (BTK degradation): cell line not given; for degradation of BTK protein: Namalwa B lymphocyte cells, various concentrations, 24 hours, Western blot
JeKo-1 cells = assay: Antiproliferative effect, MTS cell viability assay, JeKo-1 cells; type: cell-based; conditions: JeKo-1 mantle cell lymphoma cells, read-out: IC50 (anti-proliferation) JeKO-1 cells
In short: as §1

[1] = read-out: DC50 (BTK degradation), concentration giving 50% reduction of BTK expression level
[2] = read-out: Dmax (BTK degradation)

Chain of BTK (Q06187 whole entry): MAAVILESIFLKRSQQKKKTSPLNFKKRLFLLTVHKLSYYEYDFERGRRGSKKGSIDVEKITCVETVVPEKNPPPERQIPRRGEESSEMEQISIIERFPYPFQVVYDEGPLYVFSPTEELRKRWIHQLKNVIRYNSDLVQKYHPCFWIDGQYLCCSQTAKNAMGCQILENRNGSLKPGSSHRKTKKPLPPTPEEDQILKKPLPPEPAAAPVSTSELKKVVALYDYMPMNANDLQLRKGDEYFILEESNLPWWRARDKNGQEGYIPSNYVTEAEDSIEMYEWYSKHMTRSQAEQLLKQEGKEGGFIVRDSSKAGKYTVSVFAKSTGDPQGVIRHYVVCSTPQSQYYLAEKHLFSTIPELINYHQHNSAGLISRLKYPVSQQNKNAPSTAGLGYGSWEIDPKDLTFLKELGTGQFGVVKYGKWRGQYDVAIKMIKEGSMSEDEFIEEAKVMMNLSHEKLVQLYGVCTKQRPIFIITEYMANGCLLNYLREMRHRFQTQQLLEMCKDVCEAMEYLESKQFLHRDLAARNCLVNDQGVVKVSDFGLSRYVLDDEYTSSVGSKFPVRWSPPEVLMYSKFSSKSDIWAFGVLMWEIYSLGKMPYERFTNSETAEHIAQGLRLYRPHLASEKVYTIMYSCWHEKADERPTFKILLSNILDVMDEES

Row | SMILES | Dmax (BTK) [%] | DC50 (BTK; BTK degradation) [nM] | DC50 (BTK; [1]) [nM] | Dmax (BTK; [2]) [%] | degradation of BTK protein (BTK) | IC50 (Mino cells; Homo sapiens, MINO) [nM] | IC50 (JeKo-1 cells; Homo sapiens) [nM] | IC50 (Mino cells) [nM] | Dmax (BTK degradation) (BTK) | IC50 (JeKo-1 cells) [nM]
1 | Nc1ncnc2c1c(-c1ccc(Oc3ccccc3)cc1)nn2C1CCN(C2CCN(C(=O)N3CCC(CN4CCN(c5ccc6c(c5)CN(C5CCC(=O)NC5=O)C6=O)CC4)CC3)CC2)CC1 (stereo not drawn) [Compound 240, 3-(5-(4-((1-(4-(4-amino-3-(4-phenoxyphenyl)-1H-pyrazolo[3,4-d]pyrimidin-1-yl)-[1,4′-bipiperidine]-1′-carbonyl)piperidin-4-yl)methyl)piperazin-1-yl)-1-oxoisoindolin-2-yl)piperidine-2,6-dione] | > 90 | < 10 |  |  |  | 1000 to 10000 | < 1000 |  |  | 
2 | Nc1ncnc2c1c(-c1ccc(Oc3ccccc3)cc1)nn2C1CCN(CCN2CCC(N3CCN(c4ccc5c(c4)C(=O)N(C4CCC(=O)NC4=O)C5=O)CC3)C2)CC1 (single isomer, unassigned) [Compound 459b, 5-(4-(1-(2-(4-(4-amino-3-(4-phenoxyphenyl)-1H-pyrazolo[3,4-d]pyrimidin-1-yl)piperidin-1-yl)ethyl)pyrrolidin-3-yl)piperazin-1-yl)-2-(2,6-dioxopiperidin-3-yl)isoindoline-1,3-dione] |  |  | < 10 |  |  |  |  | < 1000 | A (A >90%) | < 1000
3 | Nc1ncnc2c1c(-c1ccc(Oc3ccccc3)cc1)nn2C1CCN(C(=O)C2CN(C3CCN(c4ccc5c(c4)C(=O)N(C4CCC(=O)NC4=O)C5=O)CC3)C2)CC1 (stereo not drawn) [Compound 509, 5-(4-(3-(4-(4-amino-3-(4-phenoxyphenyl)-1H-pyrazolo[3,4-d]pyrimidin-1-yl)piperidine-1-carbonyl)azetidin-1-yl)piperidin-1-yl)-2-(2,6-dioxopiperidin-3-yl)isoindoline-1,3-dione] |  |  | < 10 | > 90 |  | < 1000 | < 1000 |  |  | 
4 | Nc1ncnc2c1c(-c1ccc(Oc3ccccc3)cc1)nn2C1CCC(C(=O)N2CC(C3CCN(c4ccc5c(c4)C(=O)N(C4CCC(=O)NC4=O)C5=O)CC3)C2)CC1 (stereo not drawn) [Compound 513, 5-(4-(1-(4-(4-amino-3-(4-phenoxyphenyl)-1H-pyrazolo[3,4-d]pyrimidin-1-yl)cyclohexane-1-carbonyl)azetidin-3-yl)piperidin-1-yl)-2-(2,6-dioxopiperidin-3-yl)isoindoline-1,3-dione] |  |  | < 10 | > 90 |  | < 1000 | < 1000 |  |  | 
5 | Nc1ncnc2c1c(-c1ccc(Oc3ccccc3)cc1)nn2C1CCN(CCN2CCC(CSc3ccc4c(c3)CN(C3CCC(=O)NC3=O)C4=O)C2)CC1 (stereo not drawn) [Compound 474, 3-(5-(((1-(2-(4-(4-amino-3-(4-phenoxyphenyl)-1H-pyrazolo[3,4-d]pyrimidin-1-yl)piperidin-1-yl)ethyl)pyrrolidin-3-yl)methyl)thio)-1-oxoisoindolin-2-yl)piperidine-2,6-dione] |  |  | < 10 | > 90 |  | 1000 to 10000 | 1000 to 10000 |  |  | 
6 | Nc1ncnc2c1c(-c1ccc(Oc3ccccc3)cc1)nn2C1CCC(C(=O)N2CC(N3CCN(c4ccc5c(c4)C(=O)N(C4CCC(=O)NC4=O)C5=O)CC3)C2)CC1 (stereo not drawn) [Compound 511, 5-(4-(1-(4-(4-amino-3-(4-phenoxyphenyl)-1H-pyrazolo[3,4-d]pyrimidin-1-yl)cyclohexane-1-carbonyl)-152-zetidine-3-yl)piperazin-1-yl)-2-(2,6-dioxopiperidin-3-yl)isoindoline-1,3-dione] |  |  | < 10 |  |  |  |  | < 1000 | A (A >90%) | < 1000
7 | Nc1ncnc2c1c(-c1ccc(Oc3ccccc3)cc1)nn2C1CCN(C(=O)N2CC(N3CCN(c4ccc5c(c4)CN([C@@H]4CCC(=O)NC4=O)C5=O)CC3)C2)CC1 [Compound 486, (R)-3-(5-(4-(1-(4-(4-amino-3-(4-phenoxyphenyl)-1H-pyrazolo[3,4-d]pyrimidin-1-yl)piperidine-1-carbonyl)azetidin-3-yl)piperazin-1-yl)-1-oxoisoindolin-2-yl)piperidine-2,6-dione] |  |  | < 10 | > 90 |  | < 1000 | < 1000 |  |  | 
8 | Nc1ncnc2c1c(-c1ccc(Oc3ccccc3)cc1)nn2[C@@H]1CCCN(C2CCN(C(=O)N3CC(N4CCN(c5ccc6c(c5)CN(C5CCC(=O)NC5=O)C6=O)CC4)C3)CC2)C1 (stereo partly drawn) [Compound 476, 3-(5-(4-(1-((R)-3-(4-amino-3-(4-phenoxyphenyl)-1H-pyrazolo[3,4-d]pyrimidin-1-yl)-[1,4′-bipiperidine]-1′-carbonyl)azetidin-3-yl)piperazin-1-yl)-1-oxoisoindolin-2-yl)piperidine-2,6-dione] |  |  | < 10 | > 90 | dose-dependent degradation | < 1000 | < 1000 |  |  | 
9 | Nc1ncnc2c1c(-c1ccc(Oc3ccccc3)cc1)nn2C1CCN(CCN2CCC(CSc3ccc4c(c3)C(=O)N(C3CCC(=O)NC3=O)C4=O)CC2)CC1 (stereo not drawn) [Compound 469, 5-(((1-(2-(4-(4-amino-3-(4-phenoxyphenyl)-1H-pyrazolo[3,4-d]pyrimidin-1-yl)piperidin-1-yl)ethyl)piperidin-4-yl)methyl)thio)-2-(2,6-dioxopiperidin-3-yl)isoindoline-1,3-dione] |  |  | < 10 | > 90 |  | 1000 to 10000 | 1000 to 10000 |  |  | 
10 | Nc1ncnc2c1c(-c1ccc(Oc3ccccc3)cc1)nn2C1CCN(CCCN2CCC(CC3CCN(c4ccc(NC5CCC(=O)NC5=O)cc4)CC3)C2)CC1 (stereo not drawn) [Compound 567, 3-((4-(4-((1-(3-(4-(4-amino-3-(4-phenoxyphenyl)-1H-pyrazolo[3,4-d]pyrimidin-1-yl)piperidin-1-yl)propyl)pyrrolidin-3-yl)methyl)piperidin-1-yl)phenyl)amino)piperidine-2,6-dione] |  |  | 10 to 50 | > 90 |  | 1000 to 10000 | < 1000 |  |  | 
11 | Nc1ncnc2c1c(-c1ccc(Oc3ccccc3)cc1)nn2[C@@H]1CCCN(C2CN(C(=O)N3CC(N4CCN(c5ccc6c(c5)CN(C5CCC(=O)NC5=O)C6=O)CC4)C3)C2)C1 (stereo partly drawn) [Compound 480, 3-(5-(4-(1-(3-((R)-3-(4-amino-3-(4-phenoxyphenyl)-1H-pyrazolo[3,4-d]pyrimidin-1-yl)piperidin-1-yl)azetidine-1-carbonyl)azetidin-3-yl)piperazin-1-yl)-1-oxoisoindolin-2-yl)piperidine-2,6-dione] |  |  | < 10 | > 90 | dose-dependent degradation | < 1000 | 1000 to 10000 |  |  | 

More lines, main results first:

Row | Dmax (BTK) [%] | DC50 (BTK; BTK degradation) [nM] | DC50 (BTK; [1]) [nM] | Dmax (BTK; [2]) [%] | degradation of BTK protein (BTK) | SMILES | IC50 (Mino cells; Homo sapiens, MINO) [nM] | IC50 (JeKo-1 cells; Homo sapiens) [nM] | IC50 (Mino cells) [nM] | Dmax (BTK degradation) (BTK) | IC50 (JeKo-1 cells) [nM]
12 | > 75 | 10 to 50 |  |  |  | NC(=O)c1c(-c2ccc(Oc3ccccc3)cc2)nn2c1NCC[C@H]2C1CCN(C2CCN(CCN3CCN(c4ccc5c(c4)C(=O)N(C4CCC(=O)NC4=O)C5=O)CC3)CC2)CC1 (stereo partly drawn) [Compound 323, (7S)-7-(1′-(2-(4-(2-(2,6-dioxopiperidin-3-yl)-1,3-dioxoisoindolin-5-yl)piperazin-1-yl)ethyl)-[1,4′-bipiperidin]-4-yl)-2-(4-phenoxyphenyl)-4,5,6,7-tetrahydropyrazolo[1,5-a]pyrimidine-3-carboxamide] | 1000 to 10000 | 1000 to 10000 |  |  | 
13 | > 75 | > 50 |  |  |  | NC(=O)c1c(-c2ccc(Oc3ccccc3)cc2)nn2c1NCCC2C1CCN(C2CCN(CCN3CCN(c4ccc5c(c4)C(=O)N(C4CCC(=O)NC4=O)C5=O)CC3)CC2)CC1 (stereo not drawn) [Compound 307, 7-(1′-(2-(4-(2-(2,6-dioxopiperidin-3-yl)-1,3-dioxoisoindolin-5-yl)piperazin-1-yl)ethyl)-[1,4′-bipiperidin]-4-yl)-2-(4-phenoxyphenyl)-4,5,6,7-tetrahydropyrazolo[1,5-a]pyrimidine-3-carboxamide] | 1000 to 10000 | > 10000 |  |  | 
14 | > 75 | 10 to 50 |  |  |  | Nc1ncnc2c1c(-c1ccc(Oc3ccccc3)cc1)nn2C1CCN(C2CCN(CCN3CCN(c4ccc5c(c4)CN(C4CCC(=O)NC4=O)C5=O)CC3)CC2)CC1 (stereo not drawn) [Compound 218, 3-(5-(4-(2-(4-(4-amino-3-(4-phenoxyphenyl)-1H-pyrazolo[3,4-d]pyrimidin-1-yl)-[1,4′-bipiperidin]-1′-yl)ethyl)piperazin-1-yl)-1-oxoisoindolin-2-yl)piperidine-2,6-dione] | 1000 to 10000 | < 1000 |  |  | 
15 |  |  | < 10 | > 90 |  | NC(=O)c1c(-c2ccc(Oc3ccccc3)cc2)nn2c1NCC[C@H]2C1CCN(CC2CCN(C(=O)N3CCC(CN4CCN(c5ccc6c(c5)C(=O)N(C5CCC(=O)NC5=O)C6=O)CC4)CC3)CC2)CC1 (stereo partly drawn) [Compound 409, (7S)-7-(1-((1-(4-((4-(2-(2,6-dioxopiperidin-3-yl)-1,3-dioxoisoindolin-5-yl)piperazin-1-yl)methyl)piperidine-1-carbonyl)piperidin-4-yl)methyl)piperidin-4-yl)-2-(4-phenoxyphenyl)-4,5,6,7-tetrahydropyrazolo[1,5-a]pyrimidine-3-carboxamide] | < 1000 | 1000 to 10000 |  |  | 
16 |  |  | 10 to 50 | > 75 |  | NC(=O)c1c(-c2ccc(Oc3ccccc3)cc2)nn2c1NCC[C@H]2C1CCN(C2CCN(C(=O)N3CCC(CC4CCN(c5ccc6c(c5)CN(C5CCC(=O)NC5=O)C6=O)CC4)CC3)CC2)CC1 (stereo partly drawn) [Compound 394, (7S)-7-(1′-(4-((1-(2-(2,6-dioxopiperidin-3-yl)-1-oxoisoindolin-5-yl)piperidin-4-yl)methyl)piperidine-1-carbonyl)-[1,4′-bipiperidin]-4-yl)-2-(4-phenoxyphenyl)-4,5,6,7-tetrahydropyrazolo[1,5-a]pyrimidine-3-carboxamide] | < 1000 | 1000 to 10000 |  |  | 

Reference: patent US12139492B2 (Endotarget Inc., priority 2021, dated 2024)
